Reference: ChEMBL document CHEMBL1155285, “3D-QSAR CoMFA/CoMSIA models based on theoretical active conformers of HOE/BAY-793 analogs derived from HIV-1 protease inhibitor complexes” (Eur J Med Chem, 2009)

Each compound was assayed against Protease (Human immunodeficiency virus 1, UniProt Q9YQ12) (assay: Inhibition of HIV1 protease expressed in Escherichia coli K12 assessed as inhibition of enzyme activity).
Sequence of Protease (Q9YQ12 whole entry): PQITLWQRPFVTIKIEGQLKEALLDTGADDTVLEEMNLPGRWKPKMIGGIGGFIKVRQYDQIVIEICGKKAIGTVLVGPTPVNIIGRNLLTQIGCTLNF

Row | SMILES | IC50
1 | CC(C)[C@H](NC(=O)[C@H](Cc1cccc2ccccc12)CS(=O)(=O)C(C)(C)C)C(=O)N[C@@H](CCc1ccncc1)[C@@H](O)[C@H](O)[C@H](CCc1ccncc1)NC(=O)[C@@H](NC(=O)[C@H](Cc1cccc2ccccc12)CS(=O)(=O)C(C)(C)C)C(C)C | 141 nM
2 | COc1ccc(C[C@H](NC(=O)[C@@H](NC(=O)[C@H](Cc2cccc3ccccc23)CS(=O)(=O)C(C)(C)C)C(C)C)[C@@H](O)[C@H](O)[C@H](Cc2ccc(OC)cc2OC)NC(=O)[C@@H](NC(=O)[C@H](Cc2cccc3ccccc23)CS(=O)(=O)C(C)(C)C)C(C)C)c(OC)c1 | 18.2 nM
3 | CC(C)[C@H](NC(=O)[C@@H](N)Cc1ccccc1)C(=O)N[C@@H](Cc1ccccc1)[C@@H](O)[C@H](O)[C@H](Cc1ccccc1)NC(=O)[C@@H](NC(=O)[C@@H](N)Cc1ccccc1)C(C)C | 0.851 nM
4 | CC(C)(C)S(=O)(=O)C[C@@H](Cc1cccc2ccccc12)C(=O)N[C@@H](CC(N)=O)C(=O)N[C@@H](Cc1ccccc1)[C@@H](O)[C@H](O)[C@H](Cc1ccccc1)NC(=O)[C@H](CC(N)=O)NC(=O)[C@H](Cc1cccc2ccccc12)CS(=O)(=O)C(C)(C)C | 100 nM
5 | CC(C)[C@H](NC(=O)CCS(=O)(=O)C(C)(C)C)C(=O)N[C@@H](Cc1ccccc1)[C@@H](O)[C@H](O)[C@H](Cc1ccccc1)NC(=O)[C@@H](NC(=O)CCS(=O)(=O)C(C)(C)C)C(C)C | 3.98 nM
6 | CC(C)[C@H](NC(=O)COc1cccc2ccccc12)C(=O)N[C@@H](Cc1ccccc1)[C@@H](O)[C@H](O)[C@H](Cc1ccccc1)NC(=O)[C@@H](NC(=O)COc1cccc2ccccc12)C(C)C | 38 nM
7 | CC(C)[C@H](NC(=O)[C@@H](CC(=O)O)Cc1ccccc1)C(=O)N[C@@H](Cc1ccccc1)[C@@H](O)[C@H](O)[C@H](Cc1ccccc1)NC(=O)[C@@H](NC(=O)[C@@H](CC(=O)O)Cc1ccccc1)C(C)C | 1.41 nM
8 | CC(C)[C@H](NC(=O)[C@H](Cc1cccc2ccccc12)CS(=O)(=O)C(C)(C)C)C(=O)N[C@@H](CCc1ccccc1)[C@@H](O)[C@H](O)[C@H](CCc1ccccc1)NC(=O)[C@@H](NC(=O)[C@H](Cc1cccc2ccccc12)CS(=O)(=O)C(C)(C)C)C(C)C | 363 nM
9 | CCCCC[C@H](NC(=O)[C@@H](NC(=O)[C@H](Cc1cccc2ccccc12)CS(=O)(=O)C(C)(C)C)C(C)C)[C@@H](O)[C@H](O)[C@@H](CCCCC)NC(=O)[C@H](NC(=O)[C@H](Cc1cccc2ccccc12)CS(=O)(=O)C(C)(C)C)C(C)C | 1 nM
10 | CC(C)(C)S(=O)(=O)C[C@@H](Cc1cccc2ccccc12)C(=O)N[C@@H](Cc1c[nH]cn1)C(=O)N[C@@H](Cc1ccccc1)[C@@H](O)[C@H](O)[C@H](Cc1ccccc1)NC(=O)[C@H](Cc1c[nH]cn1)NC(=O)[C@H](Cc1cccc2ccccc12)CS(=O)(=O)C(C)(C)C | 339 nM
11 | CC(C)[C@H](NC(=O)[C@H](Cc1ccccc1)CS(=O)(=O)C(C)(C)C)C(=O)N[C@@H](Cc1ccccc1)[C@@H](O)[C@H](O)[C@H](Cc1ccccc1)NC(=O)[C@@H](NC(=O)[C@H](Cc1ccccc1)CS(=O)(=O)C(C)(C)C)C(C)C | 3.24 nM
12 | CC(C)[C@H](NC(=O)[C@@H](O)Cc1ccccc1)C(=O)N[C@@H](Cc1ccccc1)[C@@H](O)[C@H](O)[C@H](Cc1ccccc1)NC(=O)[C@@H](NC(=O)[C@@H](O)Cc1ccccc1)C(C)C | 21.9 nM
13 | CC(C)[C@H](NC(=O)[C@H](Cc1cccc2ccccc12)CS(=O)(=O)C(C)(C)C)C(=O)NC[C@@H](O)[C@H](O)CNC(=O)[C@@H](NC(=O)[C@H](Cc1cccc2ccccc12)CS(=O)(=O)C(C)(C)C)C(C)C | 2.19 nM

The next lines start with the values.

Row | IC50 | SMILES
14 | 2 nM | CC(C)[C@H](NC(=O)OCc1ccccc1)C(=O)N[C@@H](Cc1ccccc1)[C@@H](O)[C@H](O)[C@H](Cc1ccccc1)NC(=O)[C@@H](NC(=O)OCc1ccccc1)C(C)C
15 | 0.398 nM | CC(C)[C@H](NC(=O)[C@H](Cc1cccc2ccccc12)CS(=O)(=O)C(C)(C)C)C(=O)N[C@@H](Cc1cccc2c1OCO2)[C@@H](O)[C@H](O)[C@H](Cc1cccc2c1OCO2)NC(=O)[C@@H](NC(=O)[C@H](Cc1cccc2ccccc12)CS(=O)(=O)C(C)(C)C)C(C)C
16 | 0.302 nM | CCC(C)[C@H](NC(=O)[C@H](Cc1cccc2ccccc12)CS(=O)(=O)C(C)(C)C)C(=O)N[C@@H](Cc1ccccc1)[C@@H](O)[C@H](O)[C@H](Cc1ccccc1)NC(=O)[C@@H](NC(=O)[C@H](Cc1cccc2ccccc12)CS(=O)(=O)C(C)(C)C)C(C)CC (stereo partly specified)
17 | 0.501 nM | CC(C)(C)[C@H](NC(=O)[C@H](Cc1cccc2ccccc12)CS(=O)(=O)C(C)(C)C)C(=O)N[C@@H](Cc1ccccc1)[C@@H](O)[C@H](O)[C@H](Cc1ccccc1)NC(=O)[C@@H](NC(=O)[C@H](Cc1cccc2ccccc12)CS(=O)(=O)C(C)(C)C)C(C)(C)C
18 | 0.398 nM | CCC[C@H](NC(=O)[C@H](Cc1cccc2ccccc12)CS(=O)(=O)C(C)(C)C)C(=O)N[C@@H](Cc1ccccc1)[C@@H](O)[C@H](O)[C@H](Cc1ccccc1)NC(=O)[C@H](CCC)NC(=O)[C@H](Cc1cccc2ccccc12)CS(=O)(=O)C(C)(C)C
19 | 0.741 nM | CC(C)(C)S(=O)(=O)C[C@@H](Cc1cccc2ccccc12)C(=O)N[C@@H](CCC(=O)O)C(=O)N[C@@H](Cc1ccccc1)[C@@H](O)[C@H](O)[C@H](Cc1ccccc1)NC(=O)[C@H](CCC(=O)O)NC(=O)[C@H](Cc1cccc2ccccc12)CS(=O)(=O)C(C)(C)C
20 | 2.88 nM | CC(C)[C@H](NC(=O)[C@H](Cc1cccc2ccccc12)CS(=O)(=O)C(C)(C)C)C(=O)N[C@@H](Cc1ccc(O)cc1)[C@@H](O)[C@H](O)[C@H](Cc1ccc(O)cc1)NC(=O)[C@H](NC(=O)[C@H](Cc1cccc2ccccc12)CS(=O)(=O)C(C)(C)C)C(C)C
21 | 1.7 nM | CC(C)(C)S(=O)(=O)C[C@@H](Cc1cccc2ccccc12)C(=O)N[C@H](C(=O)N[C@@H](Cc1ccccc1)[C@@H](O)[C@H](O)[C@H](Cc1ccccc1)NC(=O)[C@@H](NC(=O)[C@H](Cc1cccc2ccccc12)CS(=O)(=O)C(C)(C)C)C1CCCCC1)C1CCCCC1
22 | 0.302 nM | CC(O)[C@H](NC(=O)[C@H](Cc1cccc2ccccc12)CS(=O)(=O)C(C)(C)C)C(=O)N[C@@H](Cc1ccccc1)[C@@H](O)[C@H](O)[C@H](Cc1ccccc1)NC(=O)[C@@H](NC(=O)[C@H](Cc1cccc2ccccc12)CS(=O)(=O)C(C)(C)C)C(C)O (stereo partly specified)
23 | 0.794 nM | CC(C)[C@H](NC(=O)[C@H](Cc1ccncc1)CS(=O)(=O)C(C)(C)C)C(=O)N[C@@H](Cc1ccccc1)[C@@H](O)[C@H](O)[C@H](Cc1ccccc1)NC(=O)[C@@H](NC(=O)[C@H](Cc1ccncc1)CS(=O)(=O)C(C)(C)C)C(C)C
24 | 0.794 nM | CC(C)[C@H](NC(=O)[C@H](Cc1cccc2ccccc12)NS(C)(=O)=O)C(=O)N[C@@H](Cc1ccccc1)[C@@H](O)[C@H](O)[C@H](Cc1ccccc1)NC(=O)[C@@H](NC(=O)[C@H](Cc1cccc2ccccc12)NS(C)(=O)=O)C(C)C
25 | 0.302 nM | CC(C)[C@H](NC(=O)[C@H](Cc1cccc2ccccc12)CS(=O)(=O)C(C)(C)C)C(=O)N[C@@H](Cc1ccccc1)[C@@H](O)[C@H](O)[C@H](Cc1ccccc1)NC(=O)[C@@H](NC(=O)[C@H](Cc1cccc2ccccc12)CS(=O)(=O)C(C)(C)C)C(C)C
26 | 0.339 nM | COc1ccc(C[C@H](CS(=O)(=O)C(C)(C)C)C(=O)N[C@H](C(=O)N[C@@H](Cc2ccccc2)[C@@H](O)[C@H](O)[C@H](Cc2ccccc2)NC(=O)[C@@H](NC(=O)[C@H](Cc2ccc(OC)cc2)CS(=O)(=O)C(C)(C)C)C(C)C)C(C)C)cc1
27 | 3.98 nM | CC(C)[C@H](NC(=O)CCS(=O)(=O)c1ccncc1)C(=O)N[C@@H](Cc1ccccc1)[C@@H](O)[C@H](O)[C@H](Cc1ccccc1)NC(=O)[C@@H](NC(=O)CCS(=O)(=O)c1ccncc1)C(C)C
28 | 1.29 nM | CC(C)[C@H](NC(=O)OCc1cccnc1)C(=O)N[C@@H](Cc1ccccc1)[C@@H](O)[C@H](O)[C@H](Cc1ccccc1)NC(=O)[C@@H](NC(=O)OCc1cccnc1)C(C)C
29 | 0.302 nM | CC(C)(C)S(=O)(=O)C[C@@H](Cc1cccc2ccccc12)C(=O)N[C@H](C(=O)N[C@@H](Cc1ccccc1)[C@@H](O)[C@H](O)[C@H](Cc1ccccc1)NC(=O)[C@@H](NC(=O)[C@H](Cc1cccc2ccccc12)CS(=O)(=O)C(C)(C)C)C1CCCC1)C1CCCC1
30 | 0.891 nM | CC(C)[C@H](NC(=O)[C@H](Cc1ccccc1)NC(=O)[C@@H](O)C(O)[C@@H](O)C(O)O)C(=O)N[C@@H](Cc1ccccc1)[C@@H](O)[C@H](O)[C@H](Cc1ccccc1)NC(=O)[C@@H](NC(=O)[C@H](Cc1ccccc1)NC(=O)[C@@H](O)[C@@H](O)[C@@H](O)C(O)O)C(C)C (single isomer, unassigned)
31 | 15.1 nM | CC(C)[C@H](NC(=O)N(C)Cc1ccccn1)C(=O)N[C@@H](Cc1ccccc1)C(O)C(O)[C@H](Cc1ccccc1)NC(=O)[C@@H](NC(=O)N(C)Cc1ccccn1)C(C)C (single isomer, unassigned) [A-76928]
